From ChEMBL document CHEMBL5465560, “Selectivity Literature for EUbOPEN Chemogenomic Library” (2024)
pIC50: −log10 of the molar value.

Key:
[1] = target: Calcium/calmodulin-dependent protein kinase type II subunit alpha (Homo sapiens, UniProt Q9UQM7); assay: Selectivity interaction (KinomeScan (DiscoverX)) EUB0000607a CAMK2A; details: at 10 µM
[2] = target: Serine/threonine-protein kinase 26 (Homo sapiens, UniProt Q9P289); assay: Selectivity interaction (ActivX KiNativ screen (kinase selectivity in THP-1 cell lysates)) EUB0000639a STK26; type: subcellular; details: lysate, at 0.04 µM
[3] = target: T1, Serine/threonine-protein kinase D3 (Homo sapiens) (UniProt O94806); assay: Selectivity interaction (ActivX KiNativ screen (kinase selectivity in THP-1 cell lysates)) EUB0000639a PRKD3; type: subcellular; details: lysate, at 1 µM
T1 sequence (whole entry): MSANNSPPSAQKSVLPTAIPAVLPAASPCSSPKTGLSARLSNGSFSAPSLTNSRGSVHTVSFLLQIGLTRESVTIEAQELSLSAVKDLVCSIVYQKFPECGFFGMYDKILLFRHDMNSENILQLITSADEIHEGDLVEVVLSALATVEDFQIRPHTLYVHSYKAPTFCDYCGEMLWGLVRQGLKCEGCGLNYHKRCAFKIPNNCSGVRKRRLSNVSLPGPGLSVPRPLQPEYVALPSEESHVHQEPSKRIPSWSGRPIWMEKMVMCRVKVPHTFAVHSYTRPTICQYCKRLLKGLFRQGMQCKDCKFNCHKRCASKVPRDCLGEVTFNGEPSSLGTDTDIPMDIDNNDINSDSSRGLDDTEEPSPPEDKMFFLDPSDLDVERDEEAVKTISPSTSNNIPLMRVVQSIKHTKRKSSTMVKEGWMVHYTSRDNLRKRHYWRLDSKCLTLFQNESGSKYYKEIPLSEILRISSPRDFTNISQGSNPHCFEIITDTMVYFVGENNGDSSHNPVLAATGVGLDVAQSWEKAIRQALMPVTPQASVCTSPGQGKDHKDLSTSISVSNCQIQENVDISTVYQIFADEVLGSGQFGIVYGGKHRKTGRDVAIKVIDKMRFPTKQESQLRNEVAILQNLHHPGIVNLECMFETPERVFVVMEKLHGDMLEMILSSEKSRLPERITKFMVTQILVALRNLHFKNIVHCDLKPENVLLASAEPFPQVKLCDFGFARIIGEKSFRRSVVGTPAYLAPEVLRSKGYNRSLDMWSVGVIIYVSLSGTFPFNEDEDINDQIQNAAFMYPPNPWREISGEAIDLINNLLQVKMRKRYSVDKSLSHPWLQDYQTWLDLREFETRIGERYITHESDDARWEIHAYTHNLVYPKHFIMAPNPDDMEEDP

[4] = target: Phosphatidylinositol 4,5-bisphosphate 3-kinase catalytic subunit gamma isoform (Homo sapiens) (UniProt P48736); assay: Selectivity interaction (ProQinase) EUB0000171b PIK3CG
Chain of Phosphatidylinositol 4,5-bisphosphate 3-kinase catalytic subunit gamma isoform (Homo sapiens) (P48736 whole entry, looked up, canonical isoform): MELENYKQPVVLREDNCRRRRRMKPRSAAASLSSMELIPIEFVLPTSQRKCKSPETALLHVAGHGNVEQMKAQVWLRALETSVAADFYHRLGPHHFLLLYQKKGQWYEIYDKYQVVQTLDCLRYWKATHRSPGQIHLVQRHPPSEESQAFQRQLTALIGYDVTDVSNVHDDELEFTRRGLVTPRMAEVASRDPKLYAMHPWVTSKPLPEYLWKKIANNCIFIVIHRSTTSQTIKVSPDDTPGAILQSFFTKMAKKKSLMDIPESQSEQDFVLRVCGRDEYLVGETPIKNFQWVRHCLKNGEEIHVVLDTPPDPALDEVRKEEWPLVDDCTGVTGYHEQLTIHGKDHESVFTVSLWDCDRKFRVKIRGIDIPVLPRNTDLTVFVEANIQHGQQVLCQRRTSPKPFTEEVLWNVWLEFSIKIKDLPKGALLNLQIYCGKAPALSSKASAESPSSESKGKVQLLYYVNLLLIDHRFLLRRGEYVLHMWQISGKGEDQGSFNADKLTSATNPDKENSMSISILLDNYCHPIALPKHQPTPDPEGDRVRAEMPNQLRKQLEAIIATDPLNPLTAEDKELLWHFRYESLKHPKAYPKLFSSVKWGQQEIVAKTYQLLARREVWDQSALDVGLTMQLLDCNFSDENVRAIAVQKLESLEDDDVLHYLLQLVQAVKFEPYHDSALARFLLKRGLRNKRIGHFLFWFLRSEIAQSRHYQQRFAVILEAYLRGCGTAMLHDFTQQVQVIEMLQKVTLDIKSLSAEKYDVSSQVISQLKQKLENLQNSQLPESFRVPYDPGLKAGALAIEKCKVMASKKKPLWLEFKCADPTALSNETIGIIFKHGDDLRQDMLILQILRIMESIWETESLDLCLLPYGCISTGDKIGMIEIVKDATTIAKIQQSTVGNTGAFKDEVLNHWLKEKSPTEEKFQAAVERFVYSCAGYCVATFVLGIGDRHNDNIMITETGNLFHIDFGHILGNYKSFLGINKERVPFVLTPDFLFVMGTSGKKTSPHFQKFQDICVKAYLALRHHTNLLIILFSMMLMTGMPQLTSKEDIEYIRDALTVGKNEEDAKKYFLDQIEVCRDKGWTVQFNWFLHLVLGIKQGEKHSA

[5] = target: Serine/threonine-protein kinase PAK 1 (Homo sapiens) (UniProt Q13153); assay: Selectivity interaction (Kinase screening (Nanosyn)) EUB0000604a PAK1
[6] = target: T2, Cyclin-G-associated kinase (Homo sapiens) (UniProt O14976); assay: Selectivity interaction (Ambit KINOMEscan and KiNATiv profiling in Jurkat cells) EUB0000090b GAK; type: cell-based; details: at 1 µM
T2 sequence (whole entry): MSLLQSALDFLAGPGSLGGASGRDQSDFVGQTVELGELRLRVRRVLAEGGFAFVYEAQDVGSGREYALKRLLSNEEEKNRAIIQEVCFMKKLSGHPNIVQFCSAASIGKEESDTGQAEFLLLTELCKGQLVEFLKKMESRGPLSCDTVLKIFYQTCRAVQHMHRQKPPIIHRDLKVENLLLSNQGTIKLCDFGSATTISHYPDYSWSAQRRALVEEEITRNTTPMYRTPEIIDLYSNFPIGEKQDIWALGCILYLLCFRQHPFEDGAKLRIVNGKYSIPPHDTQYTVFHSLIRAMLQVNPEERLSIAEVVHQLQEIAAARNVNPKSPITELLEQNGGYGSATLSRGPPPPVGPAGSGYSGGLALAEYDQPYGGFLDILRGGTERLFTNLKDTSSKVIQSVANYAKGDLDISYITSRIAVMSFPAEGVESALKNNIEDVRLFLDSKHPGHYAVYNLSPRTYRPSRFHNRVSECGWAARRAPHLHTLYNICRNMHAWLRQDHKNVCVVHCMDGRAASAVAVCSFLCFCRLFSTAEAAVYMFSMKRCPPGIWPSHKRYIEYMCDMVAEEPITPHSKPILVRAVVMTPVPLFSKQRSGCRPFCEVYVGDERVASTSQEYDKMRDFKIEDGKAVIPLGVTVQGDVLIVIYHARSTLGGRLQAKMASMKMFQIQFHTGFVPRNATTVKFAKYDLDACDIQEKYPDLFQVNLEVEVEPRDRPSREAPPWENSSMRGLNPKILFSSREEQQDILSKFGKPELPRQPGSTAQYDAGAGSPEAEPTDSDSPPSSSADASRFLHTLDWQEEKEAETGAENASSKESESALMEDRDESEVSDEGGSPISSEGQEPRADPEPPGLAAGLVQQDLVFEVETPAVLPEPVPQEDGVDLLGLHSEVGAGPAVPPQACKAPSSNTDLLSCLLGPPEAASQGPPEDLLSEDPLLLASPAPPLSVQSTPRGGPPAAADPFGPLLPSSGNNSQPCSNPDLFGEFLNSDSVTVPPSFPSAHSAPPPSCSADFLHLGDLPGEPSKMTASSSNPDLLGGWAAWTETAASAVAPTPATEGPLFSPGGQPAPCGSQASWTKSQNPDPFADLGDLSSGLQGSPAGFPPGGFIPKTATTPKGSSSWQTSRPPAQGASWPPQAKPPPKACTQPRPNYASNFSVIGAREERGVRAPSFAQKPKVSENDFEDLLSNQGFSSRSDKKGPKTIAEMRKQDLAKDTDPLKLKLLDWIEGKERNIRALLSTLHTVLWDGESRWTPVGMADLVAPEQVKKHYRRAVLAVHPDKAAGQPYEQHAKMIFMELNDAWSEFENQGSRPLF

[7] = target: Ribosomal protein S6 kinase alpha-3 (Homo sapiens, UniProt P51812); assay: Selectivity interaction (KinomeScan (DiscoverX)) EUB0000655a RPS6KA3; details: at 10 µM
[8] = Selectivity interaction (RapidFire MS assay (using full-length mouse protein MGAT2)) EUB0001079a MGAT2
[9] = target: DNA (cytosine-5)-methyltransferase 1 (Homo sapiens) (UniProt P26358); details: at 1 µM
[10] = target: Histone-lysine N-methyltransferase 2A (Homo sapiens) (UniProt Q03164); assay: Selectivity interaction (Transferase panel (protein, RNA, and DNA methyltransferases. and EP300 (acetyltransferase))) EUB0000270b MLL
Chain of Histone-lysine N-methyltransferase 2A (Homo sapiens) (Q03164 1-2718 limits assumed): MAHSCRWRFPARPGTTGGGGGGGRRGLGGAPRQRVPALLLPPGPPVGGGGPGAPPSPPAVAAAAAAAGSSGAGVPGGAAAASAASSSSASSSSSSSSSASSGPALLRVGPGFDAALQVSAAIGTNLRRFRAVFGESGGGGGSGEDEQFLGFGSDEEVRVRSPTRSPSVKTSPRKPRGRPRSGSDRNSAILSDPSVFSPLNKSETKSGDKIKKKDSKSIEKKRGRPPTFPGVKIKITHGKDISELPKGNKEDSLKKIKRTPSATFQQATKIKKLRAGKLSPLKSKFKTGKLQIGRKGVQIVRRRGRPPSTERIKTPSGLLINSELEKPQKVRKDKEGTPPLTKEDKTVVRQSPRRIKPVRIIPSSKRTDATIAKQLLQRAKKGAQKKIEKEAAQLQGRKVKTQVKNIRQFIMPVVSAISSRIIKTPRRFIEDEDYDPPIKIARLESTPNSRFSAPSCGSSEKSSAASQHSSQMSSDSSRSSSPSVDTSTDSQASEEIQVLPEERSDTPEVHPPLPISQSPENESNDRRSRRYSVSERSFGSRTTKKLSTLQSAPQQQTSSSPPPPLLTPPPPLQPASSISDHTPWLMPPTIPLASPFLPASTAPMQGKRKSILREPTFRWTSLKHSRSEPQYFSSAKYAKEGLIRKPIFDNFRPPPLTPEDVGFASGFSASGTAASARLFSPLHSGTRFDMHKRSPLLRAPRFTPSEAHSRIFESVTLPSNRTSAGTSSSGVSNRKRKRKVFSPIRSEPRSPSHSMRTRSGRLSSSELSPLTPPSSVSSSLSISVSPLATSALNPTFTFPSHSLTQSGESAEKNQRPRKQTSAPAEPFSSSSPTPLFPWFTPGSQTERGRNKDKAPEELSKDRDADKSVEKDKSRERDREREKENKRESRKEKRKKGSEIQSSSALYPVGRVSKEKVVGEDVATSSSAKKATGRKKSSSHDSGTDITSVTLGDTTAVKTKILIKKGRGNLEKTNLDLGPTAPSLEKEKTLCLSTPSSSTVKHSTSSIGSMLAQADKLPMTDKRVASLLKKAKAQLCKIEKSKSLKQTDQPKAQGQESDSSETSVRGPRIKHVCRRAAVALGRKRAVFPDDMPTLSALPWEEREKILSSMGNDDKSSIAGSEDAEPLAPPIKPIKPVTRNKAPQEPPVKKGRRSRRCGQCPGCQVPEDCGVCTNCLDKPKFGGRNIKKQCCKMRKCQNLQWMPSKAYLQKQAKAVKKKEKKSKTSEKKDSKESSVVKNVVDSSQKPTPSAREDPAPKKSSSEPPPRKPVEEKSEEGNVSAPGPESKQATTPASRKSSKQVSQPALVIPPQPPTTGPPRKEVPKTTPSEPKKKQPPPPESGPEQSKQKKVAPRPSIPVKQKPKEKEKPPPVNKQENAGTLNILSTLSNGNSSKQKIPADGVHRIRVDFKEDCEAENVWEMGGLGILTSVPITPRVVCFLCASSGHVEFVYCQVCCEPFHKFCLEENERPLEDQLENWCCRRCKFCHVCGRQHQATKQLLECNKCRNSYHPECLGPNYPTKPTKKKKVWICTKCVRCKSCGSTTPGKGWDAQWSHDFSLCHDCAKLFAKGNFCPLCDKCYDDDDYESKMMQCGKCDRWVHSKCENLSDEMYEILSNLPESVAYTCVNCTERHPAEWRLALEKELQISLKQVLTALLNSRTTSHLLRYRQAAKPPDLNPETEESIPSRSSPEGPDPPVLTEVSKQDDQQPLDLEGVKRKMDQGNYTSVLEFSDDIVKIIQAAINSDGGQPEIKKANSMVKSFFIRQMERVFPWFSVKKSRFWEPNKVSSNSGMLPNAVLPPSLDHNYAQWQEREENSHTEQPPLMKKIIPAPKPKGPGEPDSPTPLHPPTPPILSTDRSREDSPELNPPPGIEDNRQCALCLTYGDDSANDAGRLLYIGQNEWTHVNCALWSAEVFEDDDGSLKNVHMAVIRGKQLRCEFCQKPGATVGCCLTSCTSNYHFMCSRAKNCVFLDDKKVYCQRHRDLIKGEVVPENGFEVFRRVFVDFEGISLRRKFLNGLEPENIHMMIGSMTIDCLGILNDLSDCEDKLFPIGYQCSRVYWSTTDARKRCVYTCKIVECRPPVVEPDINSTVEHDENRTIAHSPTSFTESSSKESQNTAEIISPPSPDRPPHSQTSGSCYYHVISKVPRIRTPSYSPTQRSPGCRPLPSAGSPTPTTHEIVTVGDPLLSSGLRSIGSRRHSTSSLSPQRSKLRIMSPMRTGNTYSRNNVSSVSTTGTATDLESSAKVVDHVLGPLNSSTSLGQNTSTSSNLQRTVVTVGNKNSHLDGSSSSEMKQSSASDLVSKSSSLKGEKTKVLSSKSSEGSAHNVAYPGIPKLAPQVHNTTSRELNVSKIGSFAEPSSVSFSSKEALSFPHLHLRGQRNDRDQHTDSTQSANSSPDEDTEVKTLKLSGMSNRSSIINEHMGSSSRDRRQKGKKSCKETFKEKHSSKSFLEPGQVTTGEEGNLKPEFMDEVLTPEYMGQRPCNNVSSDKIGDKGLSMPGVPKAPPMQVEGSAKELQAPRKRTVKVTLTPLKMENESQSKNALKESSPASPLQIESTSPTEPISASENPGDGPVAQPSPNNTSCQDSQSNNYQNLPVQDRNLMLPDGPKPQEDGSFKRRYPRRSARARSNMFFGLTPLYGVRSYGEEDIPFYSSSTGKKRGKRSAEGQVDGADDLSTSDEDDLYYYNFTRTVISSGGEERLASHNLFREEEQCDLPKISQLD
Chain of Histone-lysine N-methyltransferase 2A (Homo sapiens) (Q03164 2719-3969 limits assumed): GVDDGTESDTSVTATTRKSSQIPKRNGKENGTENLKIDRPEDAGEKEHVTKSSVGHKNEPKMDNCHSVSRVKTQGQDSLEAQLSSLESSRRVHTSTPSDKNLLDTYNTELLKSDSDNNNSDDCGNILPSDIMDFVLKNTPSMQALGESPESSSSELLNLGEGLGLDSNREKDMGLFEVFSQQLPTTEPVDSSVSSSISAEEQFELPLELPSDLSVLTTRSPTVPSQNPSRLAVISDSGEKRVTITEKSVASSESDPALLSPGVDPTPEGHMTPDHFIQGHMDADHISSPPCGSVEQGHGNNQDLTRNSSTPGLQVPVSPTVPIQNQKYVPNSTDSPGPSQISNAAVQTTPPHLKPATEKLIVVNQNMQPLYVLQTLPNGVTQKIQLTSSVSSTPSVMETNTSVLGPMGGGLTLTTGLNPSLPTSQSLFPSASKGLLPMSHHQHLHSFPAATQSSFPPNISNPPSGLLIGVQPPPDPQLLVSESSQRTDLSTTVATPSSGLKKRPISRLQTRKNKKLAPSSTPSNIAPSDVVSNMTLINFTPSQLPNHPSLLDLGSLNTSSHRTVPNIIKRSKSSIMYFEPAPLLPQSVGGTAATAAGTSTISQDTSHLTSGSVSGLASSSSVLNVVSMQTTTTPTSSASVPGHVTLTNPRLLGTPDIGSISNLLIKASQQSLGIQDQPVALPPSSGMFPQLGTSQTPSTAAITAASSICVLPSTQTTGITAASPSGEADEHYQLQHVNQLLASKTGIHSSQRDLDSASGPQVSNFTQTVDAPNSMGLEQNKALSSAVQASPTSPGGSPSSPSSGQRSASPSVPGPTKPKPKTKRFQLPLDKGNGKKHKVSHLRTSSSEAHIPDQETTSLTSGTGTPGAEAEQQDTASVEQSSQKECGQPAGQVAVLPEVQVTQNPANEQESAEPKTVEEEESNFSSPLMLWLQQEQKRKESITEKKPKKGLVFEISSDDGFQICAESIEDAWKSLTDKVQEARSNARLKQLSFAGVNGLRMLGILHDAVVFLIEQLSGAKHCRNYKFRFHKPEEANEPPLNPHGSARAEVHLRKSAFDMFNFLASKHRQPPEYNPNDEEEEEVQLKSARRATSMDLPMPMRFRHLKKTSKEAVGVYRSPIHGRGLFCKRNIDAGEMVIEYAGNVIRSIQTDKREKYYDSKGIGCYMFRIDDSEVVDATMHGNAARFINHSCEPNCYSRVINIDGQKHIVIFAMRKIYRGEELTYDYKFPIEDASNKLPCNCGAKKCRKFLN

`CNC(=O)Nc1ccc(-c2nc(N3CC4CCC(C3)O4)c3cnn(C4CCC5(CC4)OCCO5)c3n2)cc1` gave a % of control [1] of 100%.

Molecule `CC[C@@H]1[C@H](F)C(=O)N[C@@H]1COc1nccc2cc(C(N)=O)c(OC)cc12` [ZIMLOVISERTIB] has a % of inhibition [2] of -3.8% and a % of inhibition [3] of 1.2%.

For `C=CC(=O)Nc1cccc(C(=O)Nc2ccc(Nc3cc(-c4[nH]c(SC)nc4C)ccn3)cc2)c1`, the % of control ([4]; at 1 µM) was 176% and the % of control ([4]; at 5 µM) was 156%.

In the case of `Cc1cnc(Nc2ccc(F)cc2Cl)nc1-c1c[nH]c(C(=O)N[C@H](CO)c2cccc(Cl)c2)c1`, the % of inhibition [5] was 3%.

Work on `CN(C)C/C=C/C(=O)Nc1ccc(C(=O)N2CCCC(Nc3ncc(Cl)c(-c4c[nH]c5ccccc45)n3)C2)cc1` (configuration not stated) yielded a % of control [6] of 93%.

Work on `CN(C)CCOc1ccc(-c2nc(-c3ccncc3)c(-c3ccc4c(c3)CC/C4=N\O)[nH]2)cc1` yielded a % of control [7] of 67%.

With `Nc1cnc(N2CCc3cc(S(=O)(=O)Nc4c(F)cc(Cl)cc4F)cc(N4CCCC4=O)c32)nc1` [TP-020n] the pIC50 [8] was 6.28.

For `CNCCN1CCC(c2cc(CN(C)C(=O)c3cccc(Oc4ccccc4)c3)ccn2)CC1`, the % activity [9] was > 85%.

For `Cc1cc(CN)cc(C)c1-c1ncn(C)c1-c1cncn1C`, the % activity ([10]; at 1 µM) was > 90% and the % activity ([10]; at 10 µM) was > 80%.
